{
  "source": "ChEMBL document CHEMBL1201862",
  "about": "“PubChem BioAssay data set” (2004)",
  "key": {"[1]": {"target": "G-protein coupled receptor 55 (Homo sapiens, UniProt Q9Y2T6)", "sequence (Q9Y2T6 whole entry)": "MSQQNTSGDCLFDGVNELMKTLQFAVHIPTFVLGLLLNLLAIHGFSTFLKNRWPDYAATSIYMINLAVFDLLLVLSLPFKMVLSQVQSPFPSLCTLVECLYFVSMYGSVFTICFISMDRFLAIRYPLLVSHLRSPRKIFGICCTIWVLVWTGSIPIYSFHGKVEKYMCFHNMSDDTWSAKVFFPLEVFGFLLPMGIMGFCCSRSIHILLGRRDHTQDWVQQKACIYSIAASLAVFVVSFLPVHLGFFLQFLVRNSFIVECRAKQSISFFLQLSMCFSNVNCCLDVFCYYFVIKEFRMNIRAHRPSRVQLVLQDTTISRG", "assay": "inhibition of LPI-stimulated GPR55 beta-arrestin translocation – imaging, U2OS, beta-arrestin-GFP, LPI agonist, primary screen (AID 2013);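 note: antagonist potency measured as reduced agonist-driven arrestin aggregation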", "format": "functional"}, "[2]": {"target": "T1, Eukaryotic translation initiation factor 2-alpha kinase 3 (Homo sapiens, UniProt Q9NZJ5)", "T1 sequence (Q9NZJ5 whole entry)": "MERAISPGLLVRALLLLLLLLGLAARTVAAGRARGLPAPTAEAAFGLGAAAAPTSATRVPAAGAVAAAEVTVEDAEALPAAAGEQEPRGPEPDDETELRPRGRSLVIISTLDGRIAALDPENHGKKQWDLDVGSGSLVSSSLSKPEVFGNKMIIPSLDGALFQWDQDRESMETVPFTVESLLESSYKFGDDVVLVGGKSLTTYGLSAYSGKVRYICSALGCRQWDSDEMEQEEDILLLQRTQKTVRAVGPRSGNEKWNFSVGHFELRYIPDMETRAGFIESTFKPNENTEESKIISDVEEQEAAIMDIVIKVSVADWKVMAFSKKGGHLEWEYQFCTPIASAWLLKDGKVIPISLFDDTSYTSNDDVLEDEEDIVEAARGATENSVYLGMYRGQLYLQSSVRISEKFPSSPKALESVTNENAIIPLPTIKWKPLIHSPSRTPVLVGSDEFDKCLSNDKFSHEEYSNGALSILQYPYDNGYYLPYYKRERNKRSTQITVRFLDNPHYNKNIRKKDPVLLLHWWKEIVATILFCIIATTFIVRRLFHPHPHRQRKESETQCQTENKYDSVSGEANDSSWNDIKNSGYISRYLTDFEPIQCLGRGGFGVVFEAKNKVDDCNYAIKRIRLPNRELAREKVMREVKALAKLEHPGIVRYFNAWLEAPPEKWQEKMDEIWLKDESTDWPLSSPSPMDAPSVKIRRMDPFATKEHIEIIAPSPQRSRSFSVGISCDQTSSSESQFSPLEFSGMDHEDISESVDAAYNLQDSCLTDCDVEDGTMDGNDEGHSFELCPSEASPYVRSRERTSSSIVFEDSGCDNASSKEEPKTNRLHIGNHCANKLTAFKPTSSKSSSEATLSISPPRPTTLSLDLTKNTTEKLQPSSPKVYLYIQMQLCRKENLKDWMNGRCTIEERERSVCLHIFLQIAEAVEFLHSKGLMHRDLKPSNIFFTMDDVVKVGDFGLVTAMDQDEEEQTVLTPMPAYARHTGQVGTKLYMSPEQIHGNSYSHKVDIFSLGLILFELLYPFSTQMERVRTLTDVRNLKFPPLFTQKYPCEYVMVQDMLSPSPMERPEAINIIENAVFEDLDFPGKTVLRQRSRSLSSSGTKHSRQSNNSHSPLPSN", "assay": "Dose response cell-based high-throughput screening assay to measure PERK inhibition. [Related pubchem assays: 1416 ]", "format": "functional"}, "[3]": {"target": "T1, Eukaryotic translation initiation factor 2-alpha kinase 3", "assay": "Counterscreen assay for PERK inhibitors: Dose response cell-based high throughput screening assay to measure inhibition of PERK at 6 hours. [Related pubchem assays: 1522, 1416 ]", "format": "functional"}, "H9c2": {"test_system": "H9c2", "assay": "cells", "format": "functional, cell-based", "conditions": "Rattus norvegicus, H9c2, Myocardium"}, "[4]": {"target": "Intestinal-type alkaline phosphatase (Homo sapiens, UniProt P09923)", "sequence (P09923 whole entry)": "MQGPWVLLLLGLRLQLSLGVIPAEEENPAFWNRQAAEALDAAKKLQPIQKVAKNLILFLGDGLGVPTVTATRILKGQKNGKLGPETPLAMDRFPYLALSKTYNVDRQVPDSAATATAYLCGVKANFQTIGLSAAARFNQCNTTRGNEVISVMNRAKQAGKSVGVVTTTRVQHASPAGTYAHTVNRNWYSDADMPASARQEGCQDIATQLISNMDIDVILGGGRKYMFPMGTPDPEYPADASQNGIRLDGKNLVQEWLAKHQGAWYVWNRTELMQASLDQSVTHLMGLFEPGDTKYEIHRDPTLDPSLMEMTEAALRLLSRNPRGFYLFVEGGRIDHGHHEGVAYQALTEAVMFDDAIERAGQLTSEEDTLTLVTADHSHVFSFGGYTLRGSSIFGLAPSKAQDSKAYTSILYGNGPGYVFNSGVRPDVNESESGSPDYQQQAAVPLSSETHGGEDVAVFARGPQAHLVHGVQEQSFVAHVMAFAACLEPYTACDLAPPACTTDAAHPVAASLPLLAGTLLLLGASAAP", "assay": "Dose Response confirmation of uHTS hits from a small molecule inhibitors of human intestinal alkaline phosphatase via a luminescent assay. [Related pubchem assays (depositor defined):AID2544, AID2574]", "format": "functional"}, "[5]": {"target": "T2, C-C chemokine receptor type 6 (Homo sapiens, UniProt P51684)", "T2 sequence (P51684 whole entry)": "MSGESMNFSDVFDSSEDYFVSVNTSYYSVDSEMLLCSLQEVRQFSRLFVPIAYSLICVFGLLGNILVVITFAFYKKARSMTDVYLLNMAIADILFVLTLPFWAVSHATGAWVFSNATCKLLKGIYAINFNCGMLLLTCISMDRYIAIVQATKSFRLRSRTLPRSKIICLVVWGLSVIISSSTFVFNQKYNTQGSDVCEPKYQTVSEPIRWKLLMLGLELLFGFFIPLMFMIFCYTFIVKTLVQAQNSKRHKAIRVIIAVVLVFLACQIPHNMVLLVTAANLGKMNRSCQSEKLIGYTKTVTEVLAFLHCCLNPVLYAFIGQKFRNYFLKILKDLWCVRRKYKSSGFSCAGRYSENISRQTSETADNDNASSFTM", "assay": "antagonism of CCR6 beta-arrestin recruitment – cell-based, luminescent beta-arrestin readout, dose response (AID 504728)", "format": "functional"}, "Beta-galactosidase": {"target": "Beta-galactosidase (Escherichia coli, UniProt Q8VNN2)", "sequence (Q8VNN2 whole entry)": "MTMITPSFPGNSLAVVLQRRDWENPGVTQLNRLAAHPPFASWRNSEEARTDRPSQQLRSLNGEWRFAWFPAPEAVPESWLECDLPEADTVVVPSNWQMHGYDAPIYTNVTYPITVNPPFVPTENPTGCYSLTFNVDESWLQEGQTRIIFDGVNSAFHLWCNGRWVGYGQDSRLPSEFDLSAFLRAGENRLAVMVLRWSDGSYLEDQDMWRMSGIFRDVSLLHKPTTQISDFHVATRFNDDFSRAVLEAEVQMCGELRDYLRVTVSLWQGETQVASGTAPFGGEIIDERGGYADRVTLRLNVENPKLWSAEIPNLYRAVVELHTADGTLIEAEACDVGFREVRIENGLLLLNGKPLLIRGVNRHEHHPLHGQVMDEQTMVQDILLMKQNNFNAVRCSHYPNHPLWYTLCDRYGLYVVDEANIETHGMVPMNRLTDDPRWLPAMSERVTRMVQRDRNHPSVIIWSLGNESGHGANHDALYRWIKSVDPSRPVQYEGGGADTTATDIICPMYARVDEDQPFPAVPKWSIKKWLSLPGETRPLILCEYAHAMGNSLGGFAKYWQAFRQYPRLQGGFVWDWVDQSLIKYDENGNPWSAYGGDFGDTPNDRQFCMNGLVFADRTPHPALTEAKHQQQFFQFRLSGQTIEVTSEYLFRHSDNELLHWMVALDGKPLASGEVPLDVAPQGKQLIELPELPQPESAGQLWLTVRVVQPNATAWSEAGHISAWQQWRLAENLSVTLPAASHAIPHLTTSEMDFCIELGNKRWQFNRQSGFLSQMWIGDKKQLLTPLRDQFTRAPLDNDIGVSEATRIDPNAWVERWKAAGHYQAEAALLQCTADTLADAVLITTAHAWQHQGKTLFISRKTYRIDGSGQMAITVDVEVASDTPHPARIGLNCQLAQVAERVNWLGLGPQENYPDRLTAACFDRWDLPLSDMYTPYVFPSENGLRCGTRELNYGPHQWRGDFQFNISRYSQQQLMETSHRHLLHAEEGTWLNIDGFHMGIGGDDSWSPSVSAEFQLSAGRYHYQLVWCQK", "assay": "detection-enzyme interference by beta-gal modulators – biochemical, E. coli enzyme, set 3, artefact control for CCR6 antagonist project, dose response (AID 504712)", "format": "functional"}, "HEK293 [6]": {"test_system": "HEK293", "assay": "inhibition of NOD1-driven NF-kB reporter – cell-based, luminescence, uHTS, primary screen (AID 1578)", "format": "functional", "conditions": "Homo sapiens"}, "HEK293 [7]": {"test_system": "HEK293", "assay": "cells", "format": "functional, cell-based", "conditions": "Homo sapiens"}, "HEK293 [8]": {"test_system": "HEK293", "assay": "cells", "format": "functional, cell-based", "conditions": "Homo sapiens", "remark": "listed apart in the source"}, "HEK293 [9]": {"test_system": "HEK293", "assay": "NOD2 signaling inhibitors in MDP-stimulated cells, cell-based, uHTS, luminescence (AID 2001)", "format": "functional", "conditions": "Homo sapiens"}, "Tumor necrosis factor": {"target": "Tumor necrosis factor (Homo sapiens, UniProt P01375)", "sequence (P01375 whole entry)": "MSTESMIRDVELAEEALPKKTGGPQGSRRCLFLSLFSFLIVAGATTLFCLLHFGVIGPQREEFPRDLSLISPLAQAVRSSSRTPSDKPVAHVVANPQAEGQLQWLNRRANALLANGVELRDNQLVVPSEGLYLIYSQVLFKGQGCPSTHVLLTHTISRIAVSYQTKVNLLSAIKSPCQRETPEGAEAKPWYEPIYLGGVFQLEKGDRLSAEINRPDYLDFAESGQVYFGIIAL", "assay": "analog potency on TNFa NF-kB signaling – cell-based, revised, SAR follow-up (AID 2337)", "format": "functional"}, "[10]": {"target": "Nucleotide-binding oligomerization domain-containing protein 1 (Homo sapiens, UniProt Q9Y239)", "sequence (Q9Y239 whole entry, the tested form may be a part)": "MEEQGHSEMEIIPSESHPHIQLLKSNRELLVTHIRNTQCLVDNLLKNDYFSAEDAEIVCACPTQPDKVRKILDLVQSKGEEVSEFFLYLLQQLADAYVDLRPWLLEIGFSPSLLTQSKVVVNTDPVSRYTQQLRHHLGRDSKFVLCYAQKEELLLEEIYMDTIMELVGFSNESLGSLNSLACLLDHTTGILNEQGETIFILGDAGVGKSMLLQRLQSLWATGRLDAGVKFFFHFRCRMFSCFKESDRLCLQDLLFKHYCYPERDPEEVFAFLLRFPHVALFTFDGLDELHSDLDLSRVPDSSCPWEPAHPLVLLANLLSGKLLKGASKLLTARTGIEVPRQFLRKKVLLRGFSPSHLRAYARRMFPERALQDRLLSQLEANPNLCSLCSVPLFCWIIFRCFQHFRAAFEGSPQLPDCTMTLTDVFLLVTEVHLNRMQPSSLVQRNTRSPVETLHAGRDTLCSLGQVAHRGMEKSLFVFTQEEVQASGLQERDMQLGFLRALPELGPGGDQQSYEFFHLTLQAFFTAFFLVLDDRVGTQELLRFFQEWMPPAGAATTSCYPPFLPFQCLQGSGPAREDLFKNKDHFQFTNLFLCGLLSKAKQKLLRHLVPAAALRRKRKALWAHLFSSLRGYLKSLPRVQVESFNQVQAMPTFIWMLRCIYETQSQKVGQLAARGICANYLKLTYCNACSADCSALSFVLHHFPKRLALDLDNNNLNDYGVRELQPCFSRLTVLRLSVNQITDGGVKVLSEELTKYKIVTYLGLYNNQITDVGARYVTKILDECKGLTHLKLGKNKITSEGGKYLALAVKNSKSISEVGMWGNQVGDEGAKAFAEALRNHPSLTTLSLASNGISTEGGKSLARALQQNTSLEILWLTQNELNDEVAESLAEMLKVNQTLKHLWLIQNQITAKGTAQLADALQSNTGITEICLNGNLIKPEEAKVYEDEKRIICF", "assay": "blockers of NOD1 pathway activity – revised, SAR follow-up (AID 2333)", "format": "functional"}, "HEK293 [11]": {"test_system": "HEK293", "assay": "cells", "conditions": "Homo sapiens"}, "[12]": {"assay": "HEK-293T cell viability reduction – luminescence, B-cell screen hits, cytotoxicity control for BCR NF-kB inhibitor project, dose response (AID 489021);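 note: HEK-293T cells carrying an NF-kB luciferase reporter; cells exposed to compound for about 14 hours before viability readout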", "format": "functional, cell-based"}, "[13]": {"target": "T3, Mitochondrial peptide methionine sulfoxide reductase (Bos taurus, UniProt P54149)", "T3 sequence (P54149 whole entry)": "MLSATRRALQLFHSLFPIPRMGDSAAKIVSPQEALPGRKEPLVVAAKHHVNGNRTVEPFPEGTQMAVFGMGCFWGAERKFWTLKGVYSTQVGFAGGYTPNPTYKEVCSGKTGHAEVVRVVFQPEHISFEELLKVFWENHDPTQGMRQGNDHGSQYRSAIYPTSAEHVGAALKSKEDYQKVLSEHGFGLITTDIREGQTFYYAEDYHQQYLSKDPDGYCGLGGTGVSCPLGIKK", "assay": "Absorbance-based biochemical high throughput dose response assay for activators of Methionine sulfoxide reductase A (MsrA).", "format": "functional"}, "SUMO-activating enzyme [14]": {"target": "T4, SUMO-activating enzyme (Homo sapiens, UniProt Q9UBT2)", "T4 sequence (Q9UBE0 whole entry)": "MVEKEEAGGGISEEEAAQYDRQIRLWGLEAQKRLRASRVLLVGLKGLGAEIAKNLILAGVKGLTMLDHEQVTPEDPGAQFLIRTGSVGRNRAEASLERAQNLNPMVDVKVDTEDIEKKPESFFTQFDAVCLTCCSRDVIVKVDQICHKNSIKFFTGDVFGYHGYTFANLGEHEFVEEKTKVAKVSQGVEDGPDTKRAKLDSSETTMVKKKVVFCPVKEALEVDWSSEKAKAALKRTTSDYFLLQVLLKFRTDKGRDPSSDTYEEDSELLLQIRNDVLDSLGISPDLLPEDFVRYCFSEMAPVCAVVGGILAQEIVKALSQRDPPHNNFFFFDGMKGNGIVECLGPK", "T4 sequence (Q9UBT2 whole entry)": "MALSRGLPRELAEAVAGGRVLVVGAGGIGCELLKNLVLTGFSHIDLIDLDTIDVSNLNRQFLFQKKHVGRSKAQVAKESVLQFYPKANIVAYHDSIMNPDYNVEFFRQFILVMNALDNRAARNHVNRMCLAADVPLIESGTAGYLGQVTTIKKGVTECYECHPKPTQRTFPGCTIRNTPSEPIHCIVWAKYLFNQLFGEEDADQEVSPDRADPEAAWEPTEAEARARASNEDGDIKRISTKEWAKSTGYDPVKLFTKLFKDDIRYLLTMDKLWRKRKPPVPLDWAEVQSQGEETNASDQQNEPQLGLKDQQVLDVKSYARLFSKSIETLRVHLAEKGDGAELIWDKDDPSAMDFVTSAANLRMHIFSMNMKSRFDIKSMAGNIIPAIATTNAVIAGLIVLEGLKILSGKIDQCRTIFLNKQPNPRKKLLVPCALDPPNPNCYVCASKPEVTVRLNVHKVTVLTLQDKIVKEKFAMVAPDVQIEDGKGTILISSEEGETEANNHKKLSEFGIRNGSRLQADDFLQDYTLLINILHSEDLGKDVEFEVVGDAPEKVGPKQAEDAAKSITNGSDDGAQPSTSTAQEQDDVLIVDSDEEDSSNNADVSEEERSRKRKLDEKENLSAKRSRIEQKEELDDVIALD", "assay": "blockers of UBC9-mediated SUMO conjugation – biochemical, AlphaScreen, SUMOylation inhibitor project, confirmation (AID 2018)", "format": "functional"}, "SUMO-activating enzyme [15]": {"target": "T4, SUMO-activating enzyme", "assay": "blockers of SAE1/SAE2–UBC9 SUMO transfer – biochemical, HTRF, uHTS, primary screen (AID 2006)", "format": "protein-complex assay"}},
  "note": "Several values for one entry are separate records, joined by “and”; a condition that tells them apart may be missing. Equal entries are not always repeated. Activity calls are given as the source filed them.",
  "data": [
    {"smiles": "CCN1CC2=C(OC(N)=C(C#N)C2c2cccs2)/C(=C/c2cccs2)C1", "note": "(centres undefined)", "values": [
      {"measurement": "IC50", "setting": "[1]", "result": "5.29 µM (active)"}
    ]},
    {"smiles": "COC(=O)Cc1nnc(O)c2ccccc12", "values": [
      {"measurement": "EC50", "setting": "[2]", "result": "> 55.7 µM (not active)"},
      {"measurement": "EC50", "setting": "[3]", "result": "> 55.7 µM (not active)"},
      {"measurement": "IC50", "setting": "H9c2", "result": "> 79 µM (inactive)"}
    ]},
    {"smiles": "COc1cc(C(=O)NCC(=O)N/N=C/c2ccc(-c3ccc([N+](=O)[O-])cc3)o2)cc(OC)c1OC", "values": [
      {"measurement": "IC50", "setting": "[4]", "result": "> 100 µM (inactive)"}
    ]},
    {"smiles": "Cc1nn(-c2ccccc2)c2sc(C(=O)N(CC(=O)NC(C)(C)C)Cc3ccco3)cc12", "values": [
      {"measurement": "IC50", "setting": "[5]", "result": "> 66.6 µM (inactive)"},
      {"measurement": "IC50", "setting": "Beta-galactosidase", "result": "> 66.6 µM (inactive)"}
    ]},
    {"smiles": "CCOC(=O)c1ccc(NC(=O)c2ccc(CN3CCc4ccccc4C3)cc2)cc1", "values": [
      {"measurement": "EC50", "setting": "HEK293 [6]", "result": "0.85 µM (active)"},
      {"measurement": "IC50", "setting": "HEK293 [7]", "result": "< 0.312 µM (active)"},
      {"measurement": "IC50", "setting": "HEK293 [8]", "result": "> 20 µM (inactive)"},
      {"measurement": "IC50", "setting": "HEK293 [9]", "result": "1.3 µM (inactive)"},
      {"measurement": "IC50", "setting": "Tumor necrosis factor", "result": "1.4 µM (active) and 140 nM (active)"},
      {"measurement": "IC50", "setting": "[10]", "result": "335 nM (active) and 152 nM (active)"},
      {"measurement": "IC50", "setting": "HEK293 [11]", "result": "> 20 µM (inactive)"}
    ]},
    {"smiles": "C=C1C(=O)[C@@]23C[C@H]4[C@@H]5[C@@]6(C)CCC[C@@]57[C@@H]2[C@@H](O)[C@@H]1C[C@H]3[C@H]7N4C6", "values": [
      {"measurement": "IC50", "setting": "[12]", "result": "> 80 µM (inactive)"},
      {"measurement": "EC50", "setting": "[13]", "result": "15.8 µM (inactive)"}
    ]},
    {"smiles": "C=CCn1c(S)nnc1CCc1cc(C(C)(C)C)c(O)c(C(C)(C)C)c1", "values": [
      {"measurement": "IC50", "setting": "[1]", "result": "3 µM (active)"}
    ]},
    {"smiles": "Sc1nnc(-c2cc(-c3ccccc3)[nH]n2)n1/N=C/c1c(Cl)cccc1Cl", "values": [
      {"measurement": "IC50", "setting": "SUMO-activating enzyme [14]", "result": "3.77 µM (active)"},
      {"measurement": "IC50", "setting": "SUMO-activating enzyme [15]", "result": "16.6 µM (active)"}
    ]}
  ]
}
